Laboratory results: ChEMBL document CHEMBL1151560, “Nonpeptide glycoprotein IIb/IIIa inhibitors: 18. Indole alpha-sulfonamide acids are potent inhibitors of platelet aggregation” (Bioorg Med Chem Lett, 1997)

Experiments:
Homo sapiens = organism: Homo sapiens; test: Inhibition of ADP-induced platelet aggregation in human gel-filtered platelets; type: functional
[1] = target: Integrin alpha-IIb/beta-3 (Homo sapiens) (UniProt P05106+P08514); test: Evaluated for competitive binding against fibrinogen receptor antagonist [125I]-L-692,884 to purified alpha IIb beta-3 integrin activated by coating onto yttrium silicate Scintillation Proximity Assay Fluomicrospheres (SPA-A assay).; type: protein-complex assay
Albumin [2] = target: T1, Albumin (Homo sapiens, UniProt P02768); test: Protein Binding Assay measures the ability of a compound to bind to human albumin in pH 7.4 buffer.
T1 sequence (P02768 whole entry): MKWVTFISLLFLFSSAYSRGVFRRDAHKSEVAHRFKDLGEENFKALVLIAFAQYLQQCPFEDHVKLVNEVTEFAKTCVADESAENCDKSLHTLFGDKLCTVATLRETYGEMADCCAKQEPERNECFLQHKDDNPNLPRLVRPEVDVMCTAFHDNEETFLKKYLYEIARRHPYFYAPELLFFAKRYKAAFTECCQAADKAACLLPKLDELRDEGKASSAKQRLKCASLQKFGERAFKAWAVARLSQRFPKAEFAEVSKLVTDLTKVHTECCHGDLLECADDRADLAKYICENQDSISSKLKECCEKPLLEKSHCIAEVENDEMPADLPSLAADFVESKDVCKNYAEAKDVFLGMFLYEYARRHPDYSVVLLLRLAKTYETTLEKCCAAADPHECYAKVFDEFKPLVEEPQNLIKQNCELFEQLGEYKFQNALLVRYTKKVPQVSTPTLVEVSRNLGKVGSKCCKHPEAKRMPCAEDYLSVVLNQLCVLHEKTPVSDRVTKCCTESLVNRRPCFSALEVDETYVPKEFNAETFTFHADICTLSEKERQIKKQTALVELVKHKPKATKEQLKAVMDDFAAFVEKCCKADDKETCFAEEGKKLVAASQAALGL

Albumin [3] = target: T1, Albumin; test: Protein Binding Assay measures the ability of a compound to bind to human albumin in pH 7.4 buffer.; not soluble

Structure (SMILES)	IC50 (Homo sapiens) [nM]	ED50 [1] [nM]	Binding (Albumin [2]) [%]	Binding (Albumin [3])
O=C(NC[C@H](NS(=O)(=O)c1cccnc1)C(=O)O)c1cc2cc(OCC3CCNCC3)ccc2[nH]1	12	0.07	–	–
O=C(NC[C@H](NS(=O)(=O)c1ccccc1)C(=O)O)c1cc2ccc(OCC3CCNCC3)cc2[nH]1	15	0.49	57	–
Cc1ccc(S(=O)(=O)N[C@@H](CNC(=O)c2cc3cc(OCC4CCNCC4)ccc3[nH]2)C(=O)O)cc1	6	0.06	85	–
O=C(NC[C@H](NS(=O)(=O)c1ccccc1)C(=O)O)c1cc2cc(OCCn3ccnc3)ccc2[nH]1	45	0.28	98	–
O=C(NC[C@H](NS(=O)(=O)c1ccccc1)C(=O)O)c1cc2cc(OCc3ccncc3)ccc2[nH]1	280	0.25	99	–
O=C(NC[C@H](NS(=O)(=O)c1ccccc1)C(=O)O)c1cc2cc(OCC3CCNCC3)ccc2n1Cc1ccccc1	150	–	–	Insoluble
Cn1c(C(=O)NC[C@H](NS(=O)(=O)c2ccccc2)C(=O)O)cc2cc(OCCC3CCNCC3)ccc21	21	–	94	–
Nc1cc(COc2ccc3[nH]c(C(=O)NC[C@H](NS(=O)(=O)c4ccccc4)C(=O)O)cc3c2)ccn1	45	0.07	99	–
O=C(NC[C@H](NS(=O)(=O)c1ccccc1)C(=O)O)c1cc2cc(OCCC3CCNCC3)ccc2[nH]1	8	0.056	76	–
CC1(C)C2CCC1(CS(=O)(=O)N[C@@H](CNC(=O)c1cc3cc(OCC4CCNCC4)ccc3[nH]1)C(=O)O)C(=O)C2 (stereo not given in full)	17	0.04	63	–
O=C(NC[C@H](NS(=O)(=O)c1ccccc1)C(=O)O)c1cc2cc(OCC3CCNCC3)ccc2[nH]1	13	0.099	66	–
O=C(NC[C@H](NS(=O)(=O)c1ccccc1)C(=O)O)c1cc2cc(OCCCc3c[nH]cn3)ccc2[nH]1	100	2	98	–
O=C(NC[C@H](NS(=O)(=O)c1ccccc1)C(=O)O)c1cc2cc(OCCN3CCNCC3)ccc2[nH]1	12	0.13	57	–
O=C(O)CC(NC(=O)c1cc2cc(OCC3CCNCC3)ccc2[nH]1)c1cccnc1 (stereo not given)	810	–	47	–
O=C(Cc1c[nH]c2ccc(OCC3CCNCC3)cc12)NC[C@H](NS(=O)(=O)c1ccccc1)C(=O)O	5700	–	–	Insoluble
Cn1c(C(=O)NC[C@H](NS(=O)(=O)c2ccccc2)C(=O)O)cc2cc(OCC3CCNCC3)ccc21	15	–	94	–
O=C(O)CCNC(=O)c1cc2cc(OCC3CCNCC3)ccc2[nH]1	1000	170	52	–
